Data taken from US9556168B2, “N-alkylated indole and indazole compounds as RORgammaT inhibitors and uses thereof” (Merck Sharp & Dohme Corp., priority 2012, dated 2017).
Like-named read-outs stand apart in the source and are kept apart here.

Molecular target: human RORgammaT-Ligand Binding Domain (LBD) (Homo sapiens (Human), UniProt P51449)
Test: RORγ-Ligand Binding Domain TR-FRET assay (co-activator peptide SRC1_2 recruitment)
Assay type: biochemical
[1] = HIS-tagged RORγ-LBD 3 nM, biotinylated SRC1 LXXLL peptide 100 nM, incubated overnight at 4° C., 665 nm/615 nm signal quotient

human RORgammaT-Ligand Binding Domain (LBD), sequence (P51449 269-508): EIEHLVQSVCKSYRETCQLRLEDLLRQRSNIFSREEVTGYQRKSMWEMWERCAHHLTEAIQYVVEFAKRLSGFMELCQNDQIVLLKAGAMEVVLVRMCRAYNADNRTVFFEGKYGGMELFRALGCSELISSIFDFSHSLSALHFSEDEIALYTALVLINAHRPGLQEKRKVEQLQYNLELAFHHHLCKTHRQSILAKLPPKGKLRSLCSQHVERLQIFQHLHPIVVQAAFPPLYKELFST

Row | IC50 [1] [µM] | SMILES | IC50 [µM]
1 | > 10 | O=C(O)c1ccc(-c2nn(Cc3c(F)cccc3F)c3cccnc23)c(F)c1 [Example 1P, 4-[1-(2,6-difluorobenzyl)-1H-pyrazolo[4,3-b]pyridin-3-yl]-3-fluorobenzoic acid] | –
2 | > 10 | CC(c1ccccc1C(F)(F)F)n1nc(-c2ccc(C(=O)O)cc2F)c2ncccc21 (stereo not shown) [Example 1K, 3-fluoro-4-(1-{1-[2-(trifluoromethyl)phenyl]ethyl}-1H-pyrazolo[4,3-b]pyridin-3-yl)benzoic acid] | –
3 | – | N#Cc1ccc(Cl)cc1Cn1nc(-c2ccc(C(=O)O)cc2F)c2ncccc21 [Example 1J, 4-[1-(5-chloro-2-cyanobenzyl)-1H-pyrazolo[4,3-b]pyridin-3-yl]-3-fluorobenzoic acid] | > 10
4 | > 10 | O=C(O)c1ccc(-c2nn(Cc3c(F)ccc(F)c3F)c3cccnc23)c(F)c1 [Example 1N, 3-fluoro-4-[1-(2,3,6-trifluorobenzyl)-1H-pyrazolo[4,3-b]pyridin-3-yl]benzoic acid] | –
